This note sets out measurements from US20220054451A1, “2,3-DIHYDROBENZO[b]THIOPHENE DERIVATIVES AS HYPOXIA INDUCIBLE FACTOR-2(ALPHA) INHIBITORS” (NiKang Therapeutics, Inc., priority 2018, published 2022).

This assay addresses T1, HIF-2α (Homo sapiens, UniProt Q99814).
T1 construct: endogenous in cells; host or cells: 786-O cells
Nature of the assay: VEGF ELISA assay: VEGF expression in 786-O cells. It counts as cell-based. Particulars: VEGF concentration in culture medium by ELISA, compounds from 10 uM down to 1 nM, treated twice, medium collected 24 hours after second treatment. How it is done:
The ability of the disclosed compounds to inhibit HIF-2α was measured by determining VEGF expression in 786-O cells. About 7500 786-O cells were seeded into each well of a 96-well, white, clear bottom plate (07-200-566, Fisher Scientific) with 200 ul growth medium. Four hours later, compounds were dispensed into wells by Tecan D300e digital dispenser with starting concentration of 10 uM and ½ log of dilution down to 1 nM as final concentration. Each concentration of treatment was performed in duplicate. About 20 hours later, medium was removed and fresh medium was added, followed by compounds treatment as described above. 24 hours later, cell culture medium was collected to determine VEGF concentration using an ELISA kit (R&D systems, cat #DVE00) following the manufacturer's instruction.
The IC50 is calculated by GraphPad Prism using the dose-response-inhibition (four parameter) equation. The plate with cells was then subjected to CellTiter-Glo luminescence cell viability assay (Promega) to determine the effect of these compounds on cell numbers after the above treatment.

T1 sequence (Q99814 whole entry): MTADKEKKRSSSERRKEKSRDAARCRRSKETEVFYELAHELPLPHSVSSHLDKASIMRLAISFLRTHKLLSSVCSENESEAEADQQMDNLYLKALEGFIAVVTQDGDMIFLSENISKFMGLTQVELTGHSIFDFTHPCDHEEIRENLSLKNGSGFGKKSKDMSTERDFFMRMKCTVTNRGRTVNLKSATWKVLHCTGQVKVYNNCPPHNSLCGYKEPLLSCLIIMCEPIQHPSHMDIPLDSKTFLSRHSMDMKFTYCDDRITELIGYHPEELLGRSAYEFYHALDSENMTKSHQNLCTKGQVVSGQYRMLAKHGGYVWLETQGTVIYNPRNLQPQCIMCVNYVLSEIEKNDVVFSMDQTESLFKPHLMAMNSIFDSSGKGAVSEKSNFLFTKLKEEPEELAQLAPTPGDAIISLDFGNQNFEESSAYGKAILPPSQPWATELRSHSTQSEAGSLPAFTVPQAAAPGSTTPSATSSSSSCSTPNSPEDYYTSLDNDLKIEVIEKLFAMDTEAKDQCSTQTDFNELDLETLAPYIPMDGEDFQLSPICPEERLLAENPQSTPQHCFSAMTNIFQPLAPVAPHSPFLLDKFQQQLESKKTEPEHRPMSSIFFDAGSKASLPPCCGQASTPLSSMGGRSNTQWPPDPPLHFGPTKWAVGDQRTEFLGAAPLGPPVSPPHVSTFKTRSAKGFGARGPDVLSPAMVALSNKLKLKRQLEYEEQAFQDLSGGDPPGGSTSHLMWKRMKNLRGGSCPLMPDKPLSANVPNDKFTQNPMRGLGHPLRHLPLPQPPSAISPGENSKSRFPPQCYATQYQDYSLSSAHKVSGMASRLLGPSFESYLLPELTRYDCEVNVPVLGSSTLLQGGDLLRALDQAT

As usually defined, the EC50 is the concentration that produces a half-maximal response. Higher therefore signals a need for much substance. Consider “a mixture of 3-fluoro-5-(((1R,3R)- 2,2,3-trifluoro-7-(methylsulfonyl)- 1-oxido-2,3- dihydrobenzo[b]thiophen-4-yl)oxy) benzonitrile and 3-fluoro-5- (((1S,3S)-2,2,3-trifluoro-7- (methylsulfonyl)-1-oxido-2,3- dihydrobenzo[b]thiophen-4-yl) oxy)benzonitrile [Compound 24b]”, for which the EC50 came out at 18500 nM. The figure for “a mixture of 3-fluoro-5-(((1S,3R)- 2,2,3-trifluoro-7-(methylsulfonyl)- 1-oxido-2,3- dihydrobenzo[b]thiophen-4-yl)oxy) benzonitrile and 3-fluoro-5- (((1R,3S)-2,2,3-trifluoro-7- (methylsulfonyl)-1-oxido-2,3- dihydrobenzo[b]thiophen-4-yl) oxy)benzonitrile [Compound 24a]” is 8900 nM. `N#Cc1cc(F)cc(Oc2ccc3c(c2C(F)F)[S+]([O-])C(F)(F)C3(F)F)c1` (single isomer, unassigned) [Compound 13b] came in with an EC50 of 190 nM. Under `[O-][S+]1c2c(ccc(Oc3cncc(F)c3)c2C(F)F)C(F)(F)C1(F)F` (stereo not shown) [Compound 17, 7-(difluoromethyl)-2,2,3,3-tetrafluoro-6-((5-fluoropyridin-3-yl)oxy)-2,3-dihydrobenzo-[b]thiophene 1-oxide] stands 2130 nM; under `[O-][S@@+]1c2c(ccc(Oc3cc(F)cc(Cl)c3)c2C(F)F)[C@H](F)C1(F)F` (single isomer, unassigned) [Compound 12a], 860 nM; under `[O-][S+]1c2c(ccc(Oc3cncc(Cl)c3)c2C(F)F)C(F)(F)C1(F)F` (stereo not shown) [Compound 18, 6-((5-chloropyridin-3-yl)oxy)-7-(difluoromethyl)-2,2,3,3-tetrafluoro-2,3-dihydrobenzo-[b]thiophene 1-oxide], 1800 nM. Under `[O-][S@@+]1c2c(ccc(Oc3cc(F)cc(F)c3)c2C(F)F)[C@H](F)C1(F)F` (single isomer, unassigned) [Compound 9a] stands 970 nM. `[O-][S@@+]1c2c(ccc(Oc3cc(F)cc(F)c3)c2C(F)F)[C@@H](F)C1(F)F` (single isomer, unassigned) [Compound 9d] returned an EC50 of 3270 nM. With `N#Cc1cncc(Oc2ccc3c(c2C(F)F)[S+]([O-])C(F)(F)C3(F)F)c1` (stereo not shown) [Compound 16, 5-((7-(difluoromethyl)-2,2,3,3-tetrafluoro-1-oxido-2,3-dihydrobenzo[b]thiophen-6-yl)oxy)nicotinonitrile], the concentration giving a half-maximal response (EC50) was 2390 nM.

In turn, `[O-][S+]1c2c(ccc(Oc3cc(F)cc(F)c3)c2C(F)F)C(F)(F)C1(F)F` (stereo not shown) [Compound 15, 7-(difluoromethyl)-6-(3,5-difluorophenoxy)-2,2,3,3-tetrafluoro-2,3-dihydrobenzo[b]-thiophene 1-oxide] returned an EC50 of 130 nM. `N#Cc1cc(F)cc(Oc2ccc3c(c2Cl)S(=O)(=O)C(F)(F)C3(F)F)c1` [Compound 29, 3-((7-chloro-2,2,3,3-tetrafluoro-1,1-dioxido-2,3-dihydrobenzo [b]thiophen-6-yl)oxy)-5-fluorobenzonitrile] yielded an EC50 of 190 nM. The EC50 values of the last two compounds are within 1.5-fold of each other. The figure for “a mixture of 3-(((1S,3S)-7- (difluoromethyl)-2,2,3-trifluoro-1- oxido-2,3-dihydrobenzo- [b]thiophen-6-yl)oxy)-5- fluorobenzonitrile and 3-(((1R,3R)- 7-(difluoromethyl)-2,2,3- trifluoro-1-oxido-2,3-dihydrobenzo [b]thiophen-6-yl)oxy)-5- fluorobenzonitrile [Compound 3b]” is 160 nM; for `N#Cc1cc(F)cc(Oc2ccc3c(c2Br)[S+]([O-])C(F)(F)C3(F)F)c1` (stereo not shown) [Compound 30, 3-((7-bromo-2,2,3,3-tetrafluoro-1-oxido-2,3-dihydrobenzo[b]thiophen-6-yl)oxy)-5-fluorobenzonitrile] it is 390 nM.

Compound `[O-][S@+]1c2c(ccc(Oc3cc(F)cc(Cl)c3)c2C(F)F)[C@H](F)C1(F)F` (single isomer, unassigned) [Compound 12c] gave an EC50 of 45 nM. In turn, “a mixture of 3-(((1S,3R)-7- (difluoromethyl)-2,2,3-trifluoro-1- oxido-2,3-dihydrobenzo- [b]thiophen-6-yl)oxy)-5- fluorobenzonitrile and 3-(((1R,3S)- 7-(difluoromethyl)-2,2,3- trifluoro-1-oxido-2,3-dihydrobenzo [b]thiophen-6-yl)oxy)-5- fluorobenzonitrile [Compound 3a]” returned an EC50 of 3500 nM. Compared with the last compound, the EC50 is about 78-fold higher. “a mixture of 3-fluoro-5-(((1S,3R)- 2,2,3-trifluoro-1-oxido-7- (trifluoromethyl)-2,3- dihydrobenzo[b]thiophen-4-yl)oxy) benzonitrile and 3-fluoro-5- (((1R,3S)-2,2,3-trifluoro-1- oxido-7-(trifluoromethyl)-2,3- dihydrobenzo[b]thiophen-4-yl) oxy)benzonitrile [Compound 27b]” gave an EC50 of 670 nM. Under “a mixture of 3-fluoro-5-(((1R,3R)- 2,2,3-trifluoro-1-oxido-7- (trifluoromethyl)-2,3- dihydrobenzo[b]thiophen-4-yl)oxy) benzonitrile and 3-fluoro-5- (((1S,3S)-2,2,3-trifluoro-1- oxido-7-(trifluoromethyl)-2,3- dihydrobenzo[b]thiophen-4-yl) oxy)benzonitrile [Compound 27a]” stands 9400 nM. Under `N#Cc1cc(Cl)cc(Oc2ccc3c(c2C(F)F)[S@@+]([O-])C(F)(F)[C@H]3F)c1` (single isomer, unassigned) [Compound 6d] stands 280 nM; under `N#Cc1cc(F)cc(Oc2ccc3c(c2C(F)F)[S+]([O-])C(F)(F)C3=O)c1` (stereo not shown) [Compound 1, 3-((7-(difluoromethyl)-2,2-difluoro-1-oxido-3-oxo-2,3-dihydrobenzo[b]thiophen-6-yl)oxy)-5-fluorobenzonitrile], 720 nM.

`N#Cc1cc(F)cc(Oc2ccc3c(c2C(F)F)S(=O)(=O)C(F)(F)C3(F)F)c1` [Compound 20, 3-((7-(difluoromethyl)-2,2,3,3-tetrafluoro-1,1-dioxido-2,3-dihydrobenzo[b]thiophen-6-yl)oxy)-5-fluorobenzonitrile]: the EC50 was found to be 27 nM. The figure for `N#Cc1cc(F)cc(Oc2ccc3c(c2Cl)[S+]([O-])C(F)(F)C3(F)F)c1` (stereo not shown) [Compound 28, 3-((7-chloro-2,2,3,3-tetrafluoro-1-oxido-2,3-dihydrobenzo[b]thiophen-6-yl)oxy)-5-fluorobenzonitrile] is 240 nM. The figure for `N#Cc1cc(F)cc(Oc2ccc3c(c2C#N)[S+]([O-])C(F)(F)C3(F)F)c1` (stereo not shown) [Compound 31, 6-(3-cyano-5-fluorophenoxy)-2,2,3,3-tetrafluoro-2,3-dihydrobenzo [b]thiophene-7-carbonitrile 1-oxide] is 190 nM. The figure for `[O-][S+]1c2c(ccc(OC3CC(F)(F)C3)c2C(F)F)C(F)(F)C1(F)F` (stereo not shown) [Compound 19, 6-(3,3-difluorocyclobutoxy)-7-(difluoromethyl)-2,2,3,3-tetrafluoro-2,3-dihydrobenzo[b]-thiophene 1-oxide] is 2680 nM.

As to `N#Cc1cc(F)cc(Oc2ccc3c(c2C(F)F)[S+]([O-])C(F)(F)C3(F)F)c1` (single isomer, unassigned) [Compound 13a], a half-maximal effect (EC50) was put at 37 nM. Regarding `[O-][S@+]1c2c(ccc(Oc3cc(F)cc(F)c3)c2C(F)F)[C@H](F)C1(F)F` (single isomer, unassigned) [Compound 9c], a half-maximal effect (EC50) was put at 74 nM. The figure for `[O-][S@+]1c2c(ccc(Oc3cc(F)cc(Cl)c3)c2C(F)F)[C@@H](F)C1(F)F` (single isomer, unassigned) [Compound 12b] is 880 nM. Compound `[O-][S@@+]1c2c(ccc(Oc3cc(F)cc(Cl)c3)c2C(F)F)[C@@H](F)C1(F)F` (single isomer, unassigned) [Compound 12d] showed an EC50 of 1600 nM.

Take `[O-][S@+]1c2c(ccc(Oc3cc(F)cc(F)c3)c2C(F)F)[C@@H](F)C1(F)F` (single isomer, unassigned) [Compound 9b]: the EC50 turned out to be 1200 nM.
